The text below walks through data of patent US20260078130A1, “NAMPT MODULATORS, PREPARATIONS, AND USES THEREOF” (SIRONAX LTD., priority 2022, published 2026).

Structures are written as SMILES. Like-named read-outs stand apart in the source and are kept apart here.

Assay [1] deals with endogenous NAMPT in U2OS cells. Description: Cellular NAD+ modulation assay (NAD/NADH-Glo, U2OS cells). It is filed as cell-based. The settings on record: Homo sapiens; for maximal fold induction: read-out: Cellular Emax. In outline: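 Endogenous NAMPT stimulation in U2OS cells treated with compound dilution series for 24 h at 37 °C. Cells lysed with DTAB base, acid-treated 15 min at 60 °C, neutralized, NAD+ read by NAD/NADH-Glo luminescence after 40 min at room temperature. EC50 and Emax (fold over DMSO) derived.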

Assay [2] concerns the target T1, human enzyme NAMPT (full length) (Homo sapiens, UniProt P43490).
T1 construct: human enzyme NAMPT (full length)
Description: NMN fluorescence biochemical assay (stimulation of NMN synthesis by NAMPT). As to conditions: for EC50: concentration giving half-maximal activation, read-out: Enzymatic EC50; for Enzymatic Emax: fold change of maximal activation compared to DMSO. A digest of the protocol:
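Full-length human NAMPT (100 nM) was preincubated 15 min at 37 °C with compound in 50 mM Tris-HCl pH 7.5, 10 mM MgCl2, 2 mM DTT, then reacted 1 h at 37 °C with 50 μM NAM, 100 μM PRPP, 4 mM ATP (stated solution concentrations). NMN was derivatised with acetophenone/KOH then formic acid and read at Ex/Em 382/445 nm; EC50 and Emax (fold over DMSO) reported.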

The mark [3] stands for this setting: 24 hours incubation, cellular NAD+.
The mark [4] stands for this setting: NMN fluorescence assay, purified human NAMPT 100 nM.
The mark [5] stands for this setting: 24 hours incubation with compound.
Where [6] appears, read: NMN synthesis by purified human NAMPT (100 nM).

T1 sequence (P43490 whole entry): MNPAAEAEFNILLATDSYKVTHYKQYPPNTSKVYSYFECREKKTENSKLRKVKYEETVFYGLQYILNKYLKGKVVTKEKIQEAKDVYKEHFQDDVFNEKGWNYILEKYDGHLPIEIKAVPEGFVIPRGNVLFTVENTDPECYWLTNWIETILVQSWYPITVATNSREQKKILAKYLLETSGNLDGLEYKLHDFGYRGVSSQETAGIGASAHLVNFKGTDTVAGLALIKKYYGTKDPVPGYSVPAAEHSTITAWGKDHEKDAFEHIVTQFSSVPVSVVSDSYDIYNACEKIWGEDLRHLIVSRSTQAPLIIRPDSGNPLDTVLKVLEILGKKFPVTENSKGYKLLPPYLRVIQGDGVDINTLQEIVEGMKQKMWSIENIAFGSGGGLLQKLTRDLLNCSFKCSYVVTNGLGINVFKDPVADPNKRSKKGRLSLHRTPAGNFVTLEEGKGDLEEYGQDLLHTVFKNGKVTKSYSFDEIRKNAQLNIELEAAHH

One may read the EC50 as the concentration at which the effect is half-maximal. With `Cn1nc(C2CC2)c(Cl)c1CC1c2ccccc2C(=O)N1Cc1ccc2[nH]nnc2c1` (stereo not shown) [Compound 399, 2-((1H-benzo[d][1,2,3]triazol-5-yl)methyl)-3-((4-chloro-3-cyclopropyl-1-methyl-1H-pyrazol-5-yl)methyl)isoindolin-1-one], in assay [1] (setting [3]), the EC50 was less than 500 nM and the maximal fold induction is more than 1.5. Moreover, in assay [2] (setting [4]), the concentration giving a half-maximal response (EC50) is less than 500 nM. The “Enzymatic Emax” value in assay [2] was “B (3≥B>2)”.

Turning to `Cc1ccc(=O)n(C)c1CC1c2ccccc2C(=O)N1CC1CC2(CNC(=O)O2)C1` (stereo not shown) [Compound 493, 2-((1-((1,3-dimethyl-6-oxo-1,6-dihydropyridin-2-yl)methyl)-3-oxoisoindolin-2-yl)methyl)-5-oxa-7-azaspiro[3.4]octan-6-one], in assay [1] (setting [3]), the EC50 fell in the range of 500 to 5000 nM and the maximal fold induction was more than 1.5. For the same compound, the EC50 in assay [2] (setting [4]) lay in the range of 500 to 5000 nM. The “Enzymatic Emax” value in assay [2] was “B (3≥B>2)”.

With `N#Cc1ccc(CC2c3ccccc3C(=O)N2Cc2ccc3[nH]c(=O)oc3c2)cc1` (stereo not shown) [Compound 148, 4-((3-oxo-2-((2-oxo-2,3-dihydrobenzo[d]oxazol-6-yl)methyl)isoindolin-1-yl)methyl) benzonitrile], in assay [1] (setting [5]), the concentration for a half-maximal effect (EC50) fell in the range of 500 to 5000 nM and the maximal fold induction was more than 1.5. Besides, the EC50 in assay [2] (setting [6]) is 500 to 5000 nM. The “Enzymatic Emax” value in assay [2] is listed as “B (3≥B>2)”.

With `CC1c2ccccc2C(=O)N1Cc1ccc2[nH]c(=O)oc2c1` (stereo not shown) [Compound 54, 6-((1-methyl-3-oxoisoindolin-2-yl)methyl)benzo[d]oxazol-2(3H)-one], the EC50 in assay [1] (setting [5]) is 500 to 5000 nM; in assay [2] (setting [6]) it was not below 5000 nM. Moreover, the maximal fold induction in assay [1] (setting [5]) is more than 1.5. In assay [2], the “Enzymatic Emax” value is “A (A>3)”.

In the case of `O=C1c2ccccc2C(Cc2ncccc2C(F)F)N1Cc1ccc2[nH]c(=O)oc2c1` (stereo not shown) [Compound 191, 6-((1-((3-(difluoromethyl)pyridin-2-yl)methyl)-3-oxoisoindolin-2-yl)methyl)benzo[d]oxazol-2(3H)-one], the EC50 in assay [1] (setting [5]) and in assay [2] (setting [6]) was 500 to 5000 nM throughout. For the same compound, the maximal fold induction in assay [1] (setting [5]) was more than 1.5. In addition, in assay [2], the “Enzymatic Emax” value was “A (A>3)”.

For the compound `N#Cc1nccc(Cl)c1CC1c2ccccc2C(=O)N1Cc1ccc2[nH]c(=O)oc2c1` (stereo not shown) [Compound 212, 4-chloro-3-((3-oxo-2-((2-oxo-2,3-dihydrobenzo[d]oxazol-6-yl)methyl)isoindolin-1-yl)methyl)picolinonitrile], the EC50 in assay [1] (setting [5]) and in assay [2] (setting [6]) was less than 500 nM throughout. Besides, in assay [1] (setting [5]), the maximal fold induction was more than 1.5. Also, the “Enzymatic Emax” value in assay [2] is reported as “A (A>3)”.

Take `Cc1cncc(C#N)c1CC1c2ccccc2C(=O)N1Cc1ccc2[nH]nnc2c1` (stereo not shown) [Compound 364, 4-((2-((1H-benzo[d][1,2,3]triazol-5-yl)methyl)-3-oxoisoindolin-1-yl)methyl)-5-methylnicotinonitrile]: in assay [1] (setting [3]), the concentration giving a half-maximal response (EC50) is less than 500 nM and the maximal fold induction was more than 1.5. For the same compound, the EC50 in assay [2] (setting [4]) was less than 500 nM. Moreover, the “Enzymatic Emax” value in assay [2] is recorded as “B (3≥B>2)”.

With `Cn1ncc(Cl)c1CC1c2cccc(F)c2C(=O)N1CC1CC2(CNC(=O)O2)C1` (stereo not shown) [Compound 309, 2-((1-((4-chloro-1-methyl-1H-pyrazol-5-yl)methyl)-4-fluoro-3-oxoisoindolin-2-yl)methyl)-5-oxa-7-azaspiro[3.4]octan-6-one], in assay [1] (setting [5]), the EC50 was less than 500 nM and the maximal fold induction is more than 1.5. Moreover, in assay [2] (setting [6]), the concentration giving a half-maximal response (EC50) was less than 500 nM. The “Enzymatic Emax” value in assay [2] is recorded as “B (3≥B>2)”.

`O=C1c2ccncc2CN1Cc1ccc(O)cc1` [Compound 43, 2-(4-hydroxybenzyl)-2,3-dihydro-1H-pyrrolo[3,4-c]pyridin-1-one]: in assay [1] (setting [5]), the EC50 was in the range of 5000 to 50000 nM and the maximal fold induction was in the range of 1.2 to 1.5. For the same compound, the 50% effective concentration (EC50) in assay [2] (setting [6]) was not below 5000 nM. Besides, the “Enzymatic Emax” value in assay [2] is “A (A>3)”.

Regarding `O=C1c2ccc(Br)cc2CN1Cc1ccc2[nH]c(=O)oc2c1` [Compound 299, 6-((5-bromo-1-oxoisoindolin-2-yl)methyl)benzo[d]oxazol-2(3H)-one], the concentration giving a half-maximal response (EC50) in assay [1] (setting [5]) and in assay [2] (setting [6]) was 500 to 5000 nM throughout. Moreover, in assay [1] (setting [5]), the maximal fold induction lay in the range of 1.2 to 1.5. Moreover, in assay [2], the “Enzymatic Emax” value is “C (2≥C)”.
